In EPA's ToxRefDB 2:

Key:
mouse [1] = conditions: Carcinogenicity; b6c3f1; Oral; Feed; dose end: 96 week; group: systemic; systemic / pathology microscopic / stomach / adenoma + systemic / in life observation / body weight / body weight + systemic / in life …
rat [2] = conditions: Combined chronic toxicity/carcinogenicity; fischer; Oral; Feed; dose end: 104 week; group: systemic; systemic / pathology microscopic / stomach / adenocarcinoma + systemic / pathology microscopic / stomach / adenoma + systemic / in life …
rabbit [3] = conditions: Prenatal developmental toxicity study, new zealand white, Oral, Gavage/Intubation, dose end: 19 GD
rat [4] = conditions: Multigenerational reproductive toxicity study; sprague dawley; Oral; Gavage/Intubation; dose end: 1 generation; group: parental; systemic / in life observation / body weight / body weight gain + systemic / in life observation / clinical signs / skin discoloration + …
rat [5] = conditions: Prenatal developmental toxicity study; sprague dawley; Oral; Gavage/Intubation; dose end: 17 GD; group: maternal; systemic / in life observation / clinical signs / [other] + systemic / in life observation / clinical signs / ataxia + systemic / in life …
rat [6] = conditions: Peri- and post-natal toxicity study (Segment III), sprague dawley, Oral, Gavage/Intubation, dose end: 25 PND
rat [7] = conditions: Subchronic oral toxicity in rodents, wistar, Feed, dose end: 90 day, group: systemic
rat [8] = conditions: Prenatal developmental toxicity study, wistar, Oral, Gavage/Intubation, dose end: 20 GD
mouse [9] = conditions: Carcinogenicity, cd1, Oral, Feed, dose end: 78 week, group: systemic
dog [10] = conditions: Subchronic oral toxicity in nonrodent, beagle, Feed, dose end: 98 day, group: systemic
rat [11] = conditions: Multigenerational reproductive toxicity study, wistar, Oral, Feed, dose end: 2 generation
dog [12] = conditions: Chronic toxicity, beagle, Oral, Feed, dose end: 394 day, group: systemic
mouse [13] = conditions: Subchronic oral toxicity in rodents, cd1, Feed, dose end: 90 day, group: systemic, systemic / organ weight / liver / relative to body weight + systemic / organ weight / liver / absolute + systemic / clinical chemistry / …
dog [14] = conditions: Subchronic oral toxicity in nonrodent, beagle, Capsule, dose end: 14 week, group: systemic
dog [15] = conditions: Chronic toxicity, beagle, Oral, Capsule, dose end: 52 week, group: systemic
rat [16] = conditions: Multigenerational reproductive toxicity study, sprague dawley, Oral, Feed, dose end: 2 generation
rat [17] = conditions: Prenatal developmental toxicity study, sprague dawley, Oral, Gavage/Intubation, dose end: 17 GD
rat [18] = conditions: Subchronic oral toxicity in rodents, sprague dawley, Gavage/Intubation, dose end: 14 week, group: systemic
mouse [19] = conditions: Prenatal developmental toxicity study, other, Oral, Gavage/Intubation, dose end: 15 GD
rat [20] = conditions: Subchronic oral toxicity in rodents, sprague dawley, Feed, dose end: 90 day, group: systemic, systemic / in life observation / body weight / body weight gain + systemic / pathology microscopic / liver / hypertrophy + systemic / …
mouse [21] = conditions: Carcinogenicity, cd1, Oral, Feed, dose end: 105 week, group: systemic
rat [22] = conditions: Combined chronic toxicity/carcinogenicity; sprague dawley; Oral; Feed; dose end: 104 week; group: systemic; systemic / in life observation / body weight / body weight + systemic / in life observation / body weight / body weight gain + systemic / …
rabbit [23] = conditions: Prenatal developmental toxicity study, new zealand white, Oral, Gavage/Intubation, dose end: 18 GD
[24] = group: developmental, developmental / developmental landmark / incisor eruption / incisor eruption + developmental / developmental malformation / bone / delayed …
[25] = group: maternal, systemic / in life observation / body weight / body weight + systemic / in life observation / clinical signs / [other] + systemic / in life …
[26] = group: maternal, reproductive / offspring survival early / dead fetuses / dead fetuses
[27] = group: parental, systemic / in life observation / clinical signs / skin discoloration + systemic / in life observation / clinical signs / urine, …
[28] = systemic / hematology / hemoglobin (hgb) / hemoglobin (hgb)
[29] = systemic / in life observation / body weight / body weight + systemic / in life observation / body weight / body weight gain + systemic / in…
[30] = group: developmental, developmental / developmental malformation / bone / incomplete ossification
[31] = group: maternal, systemic / organ weight / liver / absolute + systemic / organ weight / liver / relative to body weight
[32] = systemic / clinical chemistry / alanine aminotransferase (alt/sgpt) / alanine aminotransferase (alt/sgpt) + systemic / clinical chemistry / …
[33] = systemic / in life observation / body weight / body weight gain + systemic / in life observation / food consumption / food efficiency + …
[34] = group: offspring, developmental / developmental malformation / bone / incomplete ossification + developmental / developmental landmark / preputial separation…
[35] = group: parental, systemic / in life observation / body weight / body weight gain
[36] = systemic / clinical chemistry / alkaline phosphatase (alp/alk) / alkaline phosphatase (alp/alk) + systemic / clinical chemistry / gamma …
[37] = systemic / pathology microscopic / kidney / pigmentation
[38] = systemic / hematology / anemia / anemia - nos + systemic / hematology / erythrocyte (rbc) count differential / erythrocyte (rbc) + systemic…
[39] = systemic / organ weight / liver / absolute + systemic / organ weight / liver / relative to body weight + systemic / pathology microscopic / …
[40] = systemic / pathology microscopic / gallbladder / discolored + systemic / pathology microscopic / gallbladder / vacuolization cytoplasmic
[41] = group: offspring, systemic / in life observation / body weight / offspring (pup) weight
[42] = group: parental, systemic / in life observation / body weight / body weight gain + systemic / in life observation / food consumption / food consumption
[43] = group: parental, systemic / in life observation / food consumption / food consumption
[44] = group: developmental, systemic / in life observation / body weight / fetal weight
[45] = group: maternal, systemic / in life observation / body weight / body weight gain + systemic / in life observation / food consumption / food consumption
[46] = group: maternal, systemic / in life observation / body weight / body weight gain + systemic / in life observation / food consumption / food consumption + …
[47] = systemic / in life observation / clinical signs / alopecia
[48] = systemic / pathology microscopic / kidney / calculus + systemic / pathology microscopic / kidney / hyperplasia + systemic / pathology …
[49] = systemic / in life observation / mortality / mortality
[50] = group: developmental, developmental / developmental malformation / bone / incomplete ossification + developmental / developmental malformation / lung / abnormal …
[51] = group: maternal, reproductive / reproductive performance / resorptions / resorptions + systemic / in life observation / body weight / body weight gain + …

SMILES: Oc1ccccc1O [Catechol]
- LEL (mouse [1]): 1200 mg/kg/day
- LOAEL (mouse [1]): > 1200 mg/kg/day
- NEL (mouse [1]): < 1200 mg/kg/day
- NOAEL (mouse [1]): ≥ 1200 mg/kg/day
- LEL (rat [2]): 400 mg/kg/day
- LOAEL (rat [2]): > 400 mg/kg/day
- NEL (rat [2]): < 400 mg/kg/day
- NOAEL (rat [2]): ≥ 400 mg/kg/day

SMILES: CCc1cc(S(=O)(=O)O)c2cc(C(C)C)cccc1-2 [Egualen]
- LEL (rabbit [3]; [24]): 135 mg/kg/day
- LOAEL (rabbit [3]; [24]): > 135 mg/kg/day
- NEL (rabbit [3]; [24]): 45 mg/kg/day
- NOAEL (rabbit [3]; [24]): ≥ 135 mg/kg/day
- LEL (rabbit [3]; [25]): 135 mg/kg/day
- LOAEL (rabbit [3]; [25]): > 135 mg/kg/day
- NEL (rabbit [3]; [25]): 45 mg/kg/day
- NOAEL (rabbit [3]; [25]): ≥ 135 mg/kg/day
- LEL (rat [4]): 200 mg/kg/day
- LOAEL (rat [4]): > 200 mg/kg/day
- NEL (rat [4]): 50 mg/kg/day
- NOAEL (rat [4]): ≥ 200 mg/kg/day
- LEL (rat [5]): 77 mg/kg/day
- LOAEL (rat [5]): > 600 mg/kg/day
- NEL (rat [5]): 10 mg/kg/day
- NOAEL (rat [5]): ≥ 600 mg/kg/day
- LEL (rat [6]; [26]): 300 mg/kg/day
- LOAEL (rat [6]; [26]): > 300 mg/kg/day
- NEL (rat [6]; [26]): 55 mg/kg/day
- NOAEL (rat [6]; [26]): ≥ 300 mg/kg/day
- LEL (rat [6]; [27]): 55 mg/kg/day
- LOAEL (rat [6]; [27]): > 300 mg/kg/day
- NEL (rat [6]; [27]): 10 mg/kg/day
- NOAEL (rat [6]; [27]): ≥ 300 mg/kg/day

SMILES: CO/N=C(/C1=NOCCO1)c1ccccc1Oc1ncnc(Oc2ccccc2Cl)c1F [Fluoxastrobin]
- LEL (rat [7]; [28]): 21.5 mg/kg/day
- NEL (rat [7]; [28]): < 21.5 mg/kg/day
- LOAEL (rat [7]; [29]): 580 mg/kg/day
- NOAEL (rat [7]; [29]): 70.4 mg/kg/day
- LEL (rat [8]; [30]): 300 mg/kg/day
- LOAEL (rat [8]; [30]): > 1000 mg/kg/day
- NEL (rat [8]; [30]): 100 mg/kg/day
- NOAEL (rat [8]; [30]): ≥ 1000 mg/kg/day
- LEL (rat [8]; [31]): 1000 mg/kg/day
- LOAEL (rat [8]; [31]): > 1000 mg/kg/day
- NEL (rat [8]; [31]): 300 mg/kg/day
- NOAEL (rat [8]; [31]): ≥ 1000 mg/kg/day
- LOAEL (mouse [9]; [32]): > 776 mg/kg/day
- NEL (mouse [9]; [32]): 19 mg/kg/day
- NOAEL (mouse [9]; [32]): ≥ 776 mg/kg/day
- LEL (mouse [9]; systemic / in life observation / body weight / body weight + systemic / organ weight / liver / relative to body weight): 135 mg/kg/day
- LEL (dog [10]; systemic / in life observation / body weight / body weight gain + systemic / in life observation / food consumption / food efficiency): 3 mg/kg/day
- LOAEL (dog [10]; [33]): 24.2 mg/kg/day
- NEL (dog [10]; [33]): 1.4 mg/kg/day
- NOAEL (dog [10]; [33]): 3 mg/kg/day
- LEL (rat [11]; [34]): 862 mg/kg/day
- LOAEL (rat [11]; [34]): 862 mg/kg/day
- NEL (rat [11]; [34]): 77.4 mg/kg/day
- NOAEL (rat [11]; [34]): 77.4 mg/kg/day
- LEL (rat [11]; [35]): 665 mg/kg/day
- LOAEL (rat [11]; [35]): 665 mg/kg/day
- NEL (rat [11]; [35]): 70 mg/kg/day
- NOAEL (rat [11]; [35]): 70 mg/kg/day
- LOAEL (dog [12]; [36]): 7.7 mg/kg/day
- NOAEL (dog [12]; [36]): 1.5 mg/kg/day
- LEL (dog [12]; [37]): 0.7 mg/kg/day
- NEL (dog [12]; [37]): < 0.7 mg/kg/day
- LEL (mouse [13]): 81.1 mg/kg/day
- LOAEL (mouse [13]): > 1300 mg/kg/day
- NEL (mouse [13]): < 81.1 mg/kg/day
- NOAEL (mouse [13]): ≥ 1300 mg/kg/day

SMILES: c1ccc2[nH]c(-c3cscn3)nc2c1 [Thiabendazole]
- LOAEL (dog [14]; [38]): > 150 mg/kg/day
- NEL (dog [14]; [38]): 35 mg/kg/day
- NOAEL (dog [14]; [38]): ≥ 150 mg/kg/day
- LEL (dog [14]; systemic / in life observation / clinical signs / emesis + systemic / pathology microscopic / gallbladder / vacuolization cytoplasmic): 75 mg/kg/day
- LOAEL (dog [15]; [39]): 40 mg/kg/day
- NOAEL (dog [15]; [39]): 10 mg/kg/day
- LEL (dog [15]; [40]): 10 mg/kg/day
- NEL (dog [15]; [40]): < 10 mg/kg/day
- LEL (rat [16]; [41]): 90 mg/kg/day
- LOAEL (rat [16]; [41]): 90 mg/kg/day
- NEL (rat [16]; [41]): 30 mg/kg/day
- NOAEL (rat [16]; [41]): 30 mg/kg/day
- LOAEL (rat [16]; [42]): 30 mg/kg/day
- NOAEL (rat [16]; [42]): 10 mg/kg/day
- LEL (rat [16]; [43]): 10 mg/kg/day
- NEL (rat [16]; [43]): < 10 mg/kg/day
- LEL (rat [17]; [44]): 40 mg/kg/day
- LOAEL (rat [17]; [44]): 40 mg/kg/day
- NEL (rat [17]; [44]): 10 mg/kg/day
- NOAEL (rat [17]; [44]): 10 mg/kg/day
- LEL (rat [17]; [45]): 40 mg/kg/day
- LOAEL (rat [17]; [45]): 40 mg/kg/day
- NEL (rat [17]; [46]): 10 mg/kg/day
- NOAEL (rat [17]; [46]): 10 mg/kg/day
- LEL (rat [18]; [47]): 25 mg/kg/day
- NEL (rat [18]; [47]): < 25 mg/kg/day
- LOAEL (rat [18]; [48]): 100 mg/kg/day
- NOAEL (rat [18]; [48]): 25 mg/kg/day
- LEL (mouse [19]; [44]): 100 mg/kg/day
- LOAEL (mouse [19]; [44]): 100 mg/kg/day
- NEL (mouse [19]; [44]): 25 mg/kg/day
- NOAEL (mouse [19]; [44]): 25 mg/kg/day
- LEL (mouse [19]; [45]): 100 mg/kg/day
- LOAEL (mouse [19]; [45]): 100 mg/kg/day
- NEL (mouse [19]; [45]): 25 mg/kg/day
- NOAEL (mouse [19]; [45]): 25 mg/kg/day
- LEL (rat [20]): 37 mg/kg/day
- LOAEL (rat [20]): 37 mg/kg/day
- NEL (rat [20]): 9.4 mg/kg/day
- NOAEL (rat [20]): 9.4 mg/kg/day
- LOAEL (mouse [21]; systemic / in life observation / body weight / body weight gain): 92 mg/kg/day
- LEL (mouse [21]; [49]): 6.95 mg/kg/day
- NEL (mouse [21]; [49]): < 6.95 mg/kg/day
- NOAEL (mouse [21]; systemic / in life observation / mortality / mortality + systemic / in life observation / body weight / body weight gain + systemic / organ …): 36.5 mg/kg/day
- LEL (rat [22]): 30.1 mg/kg/day
- LOAEL (rat [22]): 30.1 mg/kg/day
- NEL (rat [22]): 10.1 mg/kg/day
- NOAEL (rat [22]): 10.1 mg/kg/day
- LEL (rabbit [23]; [50]): 600 mg/kg/day
- LOAEL (rabbit [23]; [50]): 600 mg/kg/day
- NEL (rabbit [23]; [50]): 150 mg/kg/day
- NOAEL (rabbit [23]; [50]): 150 mg/kg/day
- LEL (rabbit [23]; [51]): 600 mg/kg/day
- LOAEL (rabbit [23]; [51]): 600 mg/kg/day
- NEL (rabbit [23]; [51]): 150 mg/kg/day
- NOAEL (rabbit [23]; [51]): 150 mg/kg/day
